Data on eleven compounds can be found in PMC3578785, “Improved BM212 MmpL3 Inhibitor Analogue Shows Efficacy in Acute Murine Model of Tuberculosis Infection” (PLoS ONE, 2013).

One series is described as follows: in vivo. The settings on record: female, C57BL/6, mouse, po.
Series [1] in a line: in vitro. The settings on record: plasma, pH 7.4.
Series [2] deals with human serum albumin (HSA) (Homo sapiens, UniProt P02768). Format: in vitro ADME. Here is the method:
Standard physical chemical property determination methods were used. Please see the Supporting Information for details.
Protocol S4. Determination of compounds binding to human serum albumin (HSA).
The determination of compounds binding to human serum albumin (HSA) was carried out by retention time measurements using immobilized HSA HPLC columns obtained from Chiral Technologies Ltd, France. The column dimensions were 50x3 mm. The mobile phase was 50 mM ammonium acetate buffer pH 7.4 and HPLC grade 2-propanol. HPLC Method: flow rate 1.8 ml/min applying 2.5 min 2-propanol gradient up to 30%. From 2.5 min to 4.5 min the 2-propanol concentration in the mobile phase was kept at 30%. From 4.5 min to 4.6 min, the 2-propanol concentration was decreased to 0% and kept like that until the end of the gradient run which was 6 min. A calibration set of compounds was first analyzed for which plasma protein binding data were available: Warfarin, Nizatidine, Bromazepam, Carbamazepine, Budesonide, Nicardipine, Indomethacine, Piroxicam, Naproxen. The calculation of the HSA binding data expressed as %HSA was carried out as described previously.

The next series concerns M. tuberculosis H37Rv. In words: microbe, parasite or virus in culture. Format: cell-based. The settings on record: Mycobacterium tuberculosis, aerobic conditions.
A short description of series [3]: in vitro. The settings on record: African green monkey.
Series [4] in a line: in vitro. The settings on record: for half-life / t1/2 in human microsomes: human microsomes; for half-life: read-out: t1/2 in human microsomes. Format: in vitro ADME, human. The protocol:
(§1) Protocol S6. Microsomal fraction stability experimental procedure.
(§2) Pooled mouse and human liver microsomes are purchased from Xenotech. Microsomes (final protein concentration 0.5 mg/mL, MgCl2 (final concentration = 5 mM) and test compound (final substrate concentration = 0.5 µM; final DMSO concentration = 0.5%) in 0.1M phosphate buffer pH 7.4 were pre-incubated at 37°C prior to the addition of NADPH (final concentration = 1 mM) to initiate the reaction. The final incubation volume was 600 µL. A control incubation was included for each compound tested where 0.1 M phosphate buffer pH 7.4 is added instead of NADPH (minus NADPH). One control compound was included with each species. All incubations were performed singularly for each test compound. Each compound was incubated for 30 minutes and samples (90 µL) of incubate were taken at 0, 5, 15, 20 and 30 min. The control (minus NADPH) was sampled at 30 min only. The reactions were stopped by the addition of sample to 200 µL Acetonitrile:Methanol 3:1 containing internal standard. The terminated samples were centrifuged at 2.500 rpm for 20 min at 4°C to precipitate the protein.
(§3) Quantitative Analysis: following protein precipitation, the samples were analyzed using specific […]
(§4) Data Analysis: from a plot of ln peak area ratio (compound peak area/internal standard peak area) against time, the gradient of the line was determined. Subsequently, half-life and intrinsic clearance were calculated using the equations below:
(§5) Elimination rate constant (k) = (- gradient)
(§6) Half life (t1/2) (min) = […]
(§7) Intrinsic Clearance (CLint) (mL/min/g protein) = […] where V=Incubation volume mL/g microsomal protein.

The subject of the next series is H37Rv. Also noted: species or system mice. The settings on record: mouse, in vivo, po.
Series [5] can be described thus: in vitro. Format: in vitro ADME, mouse. The settings on record: for half-life / t1/2 in mouse microsomes: mouse microsomes; for half-life: read-out: t1/2 in mouse microsomes. Here is the method:
as §1, §2, §3, §4, §5, §6, §7

For series [6] the following is noted: at 1 µM.
Test in series [7]: not given
The source holds these as a separate data set.

Series [8] is described as follows: Vero cytotoxicity assay (MTT). The settings on record: African green monkey, Vero cells.
Series [9] in a line: Oral pharmacokinetic studies in mice, peripheral total blood. The settings on record: female, C57BL/6, mouse, whole blood.
Series [10] relates to M. tuberculosis H37Rv bacilli. The settings on record: cited from earlier work.

Converted amounts (≈) assume the structure as drawn. Read-outs that look alike come from different tables or passages of the source.

Sequence of human serum albumin (HSA) (P02768 25-609): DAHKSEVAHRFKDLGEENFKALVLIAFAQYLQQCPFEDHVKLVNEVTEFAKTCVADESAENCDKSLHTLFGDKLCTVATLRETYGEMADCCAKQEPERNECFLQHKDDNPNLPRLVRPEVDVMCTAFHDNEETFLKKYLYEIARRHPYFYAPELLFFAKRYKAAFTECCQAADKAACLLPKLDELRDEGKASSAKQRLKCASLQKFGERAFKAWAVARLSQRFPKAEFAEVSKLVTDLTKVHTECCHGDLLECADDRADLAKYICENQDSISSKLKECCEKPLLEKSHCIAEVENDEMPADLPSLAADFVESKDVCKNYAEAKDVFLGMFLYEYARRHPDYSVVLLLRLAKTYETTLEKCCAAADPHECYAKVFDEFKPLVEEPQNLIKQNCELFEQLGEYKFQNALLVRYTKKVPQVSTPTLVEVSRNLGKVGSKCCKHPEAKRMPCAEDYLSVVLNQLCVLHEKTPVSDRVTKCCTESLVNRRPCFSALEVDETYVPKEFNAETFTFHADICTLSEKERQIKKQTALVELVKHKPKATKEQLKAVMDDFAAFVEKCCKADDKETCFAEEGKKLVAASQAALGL

As for `Cc1c(CN2CCOCC2)cc(-c2ccc(C(C)C)cc2)n1-c1ccc(F)cc1` [Compound 9, 2-Methyl-3-[(morpholin-4-yl)-methyl]-5-[4-(i-propyl)phenyl]-1-[4-(fluoro)phenyl]-1H-pyrrole], the melting point was determined as 120 °C. In addition, in the series “in vivo” (50 mg/kg), the AUC(0-inf) came out at 11.6 µM·h, the Cmax stood at 1620 nM, the Tmax stood at 60 min and the half-life was 60 min. This compound had a fraction unbound at 1 µM in the series “in vitro [1]” below 0.001. The “HSA (%) binding” value in series [2] (human, pH 7.4) was 97.71%. The compound further came in with an MIC in the series on M. tuberculosis H37Rv of 0.12 µM (≈ 0.0471 µg/mL). The same compound had a chromatographic logD in “physchem” (pH 2) of 1.47. Also, in “physchem” (pH 7.4), the chromatographic logD is 4.57. In the series “physchem” (pH 10.5), this compound registered a chromatographic logD of 4.95. For the same compound, the CC50 at 72 h in the series “in vitro [3]” is 50.1 µM. For the same compound, the Cli human in “in vitro [4]” (human, 0.5 µM, pH 7.4) is reported as below 0.5 mL/min/g. Further, the half-life in the series “in vitro [4]” (pH 7.4) was above 30 min. In addition, the “ED99 (dose that reduces 2 logs bacterial burden in the lungs of mice; 95% confidence interval in parenthesis)” value in the series with H37Rv is listed as 49 (43–54) mg/kg. Further, the “Tox50, cytotoxicity in HepG2 cells” value in the series on HepG2 cells (human, 48 h) amounted to 15.3 µM. The half-life in the series “in vitro [5]” (pH 7.4) is above 30 min.
In turn, `COc1ccc(-n2c(-c3ccc(C(C)C)cc3)cc(CN3CCOCC3)c2C)cc1` [Compound 21, 2-Methyl-3-[(morpholin-4-yl)-methyl]-5-[4-(i-propyl)phenyl]-1-[4-(methoxy)phenyl]-1H-pyrrole] yielded a melting point of 109 °C. The fraction unbound at 1 µM in the series “in vitro [1]” stood at 0.001. Further, the “HSA (%) binding” value in [2] (human, pH 7.4) is 97.07%. The compound further displayed an MIC against M. tuberculosis H37Rv of 0.3 µM (≈ 0.121 µg/mL). Further, the chromatographic logD in the series “physchem” (pH 2) came to 1.35. Further, in the series “physchem” (pH 7.4), the chromatographic logD is 4.32. The same compound came in with a chromatographic logD in the series “physchem” (pH 10.5) of 4.81. For the same compound, in “in vitro [3]”, the CC50 at 72 h was 28.2 µM. This compound returned a Cli human in “in vitro [4]” (human, 0.5 µM, pH 7.4) of 2.15 mL/min/g. For the same compound, the half-life in “in vitro [4]” (pH 7.4) was above 30 min. Further, in the series on HepG2 cells (human, 48 h), the “Tox50, cytotoxicity in HepG2 cells” value turned out to be 14.1 µM. In “in vitro [5]” (mouse, 0.5 µM, pH 7.4), this compound had a Cli mouse of 6.07 mL/min/g. In addition, the half-life in “in vitro [5]” (pH 7.4) amounted to 10.7 min.
The compound `COc1ccc(-c2cc(CN3CCOCC3)c(C)n2-c2ccc(C)cc2)cc1` [Compound 22, 2-Methyl-3-[(morpholin-4-yl)-methyl]-5-[4-(methoxy)phenyl]-1-[4-(methyl)phenyl]-1H-pyrrole] gave a melting point of 115 °C. The compound also showed a fraction unbound at 1 µM in the series “in vitro [1]” of 0.008. In [2] (human, pH 7.4), the “HSA (%) binding” value was found to be 95.64%. In the series with M. tuberculosis H37Rv, this compound showed an MIC of 0.6 µM (≈ 0.226 µg/mL). The compound further registered a chromatographic logD in “physchem” (pH 2) of 1.02. In addition, in the series “physchem” (pH 7.4), the chromatographic logD was 3.57. Further, the chromatographic logD in the series “physchem” (pH 10.5) is 4.11. Further, the CC50 at 72 h in the series “in vitro [3]” was 50.1 µM. The Cli human in the series “in vitro [4]” (human, 0.5 µM, pH 7.4) was determined as 1.14 mL/min/g. In addition, the half-life in the series “in vitro [4]” (pH 7.4) is above 30 min. In addition, the “Tox50, cytotoxicity in HepG2 cells” value in the series with HepG2 cells (human, 48 h) worked out at 11.3 µM. The compound also yielded a Cli mouse in the series “in vitro [5]” (mouse, 0.5 µM, pH 7.4) of 12.62 mL/min/g. Further, in the series “in vitro [5]” (pH 7.4), the half-life was below 5 min.
As to `CCc1ccc(-n2c(-c3ccc(OC)cc3)cc(CN3CCOCC3)c2C)cc1` [Compound 23, 2-Methyl-3-[(morpholin-4-yl)-methyl]-5-[4-(methoxy)phenyl]-1-[4-(ethyl)phenyl]-1H-pyrrole], the melting point stood at 72 °C. This compound had a fraction unbound at 1 µM in the series “in vitro [1]” of 0.002. In addition, the “HSA (%) binding” value in [2] (human, pH 7.4) came out at 96.79%. The MIC against M. tuberculosis H37Rv was 0.3 µM (≈ 0.117 µg/mL). Further, the chromatographic logD in the series “physchem” (pH 2) turned out to be 1.24. Further, the chromatographic logD in “physchem” (pH 7.4) came out at 4.05. Besides, in “physchem” (pH 10.5), the chromatographic logD is 4.52. Also, the CC50 at 72 h in “in vitro [3]” came to 16 µM. In addition, in the series “in vitro [4]” (human, 0.5 µM, pH 7.4), the Cli human is reported as below 0.5 mL/min/g. Moreover, in “in vitro [4]” (pH 7.4), the half-life is above 30 min. Moreover, in the series on HepG2 cells (human, 48 h), the “Tox50, cytotoxicity in HepG2 cells” value amounted to 14.7 µM. This compound registered a Cli mouse in the series “in vitro [5]” (mouse, 0.5 µM, pH 7.4) of 7.8 ± 0.5 mL/min/g. In addition, the half-life in the series “in vitro [5]” (pH 7.4) is below 5 min.
On to `CCCc1ccc(-n2c(-c3ccc(OC)cc3)cc(CN3CCOCC3)c2C)cc1` [Compound 24], for which the CC50 in the series with Vero cells turned out to be 31.2 µM. Further, the “HSA (%) binding” value in series [2] is recorded as 97.43%. Moreover, in “in vitro [4]”, the Cli human is given as below 0.5 mL/min/g and the “t1/2 in human microsomes” value was above 30 min. The “PPB (%)” value in [6] is above 99.9%. Also, in series [7], the “CHILogD pH 2” value turned out to be 1.46, the “CHILogD pH 7.4” value was 4.52 and the “CHILogD pH 10.5” value is listed as 4.97. Also, the “Tox50, cytotoxicity in HepG2 cells” value in the series on HepG2 cells was found to be 2.1 µM. Besides, the “t1/2 in mouse microsomes” value in the series “in vitro [5]” is listed as above 30 min.
Compound `COc1ccc(-c2cc(CN3CCOCC3)c(C)n2-c2ccc(C(C)C)cc2)cc1` [Compound 25] showed a CC50 in the series on Vero cells of 12.9 µM. In addition, in [2], the “HSA (%) binding” value was determined as 97.02%. Moreover, in the series “in vitro [4]”, the Cli human is 0.5 mL/min/g and the “t1/2 in human microsomes” value is on record as above 30 min. In addition, in series [6], the “PPB (%)” value was above 99.9%. For the same compound, in series [7], the “CHILogD pH 2” value came to 1.36, the “CHILogD pH 7.4” value was 4.36 and the “CHILogD pH 10.5” value is reported as 4.86. Besides, the “Tox50, cytotoxicity in HepG2 cells” value with HepG2 cells was 15.9 µM. In addition, in the series “in vitro [5]”, the Cli mouse turned out to be 10.55 mL/min/g and the “t1/2 in mouse microsomes” value was below 5 min.
`NNC(=O)c1ccncc1` [Isoniazid]: in the series with H37Rv, the “ED99 (dose that reduces 2 logs bacterial burden in the lungs of mice; 95% confidence interval in parenthesis)” value is 0.95 (0.86–1.1 ) mg/kg. Moreover, the CC50 at 72 h in series [8] was above 256 µM. The AUC(0-inf) in series [9] (0.98 mg/kg) is 5.5 µM·h.
As to `COc1c(N2C[C@@H]3CCCN[C@@H]3C2)c(F)cc2c(=O)c(C(=O)O)cn(C3CC3)c12` [Moxifloxacin], the “ED99 (dose that reduces 2 logs bacterial burden in the lungs of mice; 95% confidence interval in parenthesis)” value in the series with H37Rv is 28 (26–29) mg/kg. In [9] (27.5 mg/kg), the AUC(0-inf) was 9.4 µM·h.
Compound `CO[C@H]1/C=C/O[C@@]2(C)Oc3c(C)c(O)c4c(O)c(c(/C=N/N5CCN(C)CC5)c(O)c4c3C2=O)NC(=O)/C(C)=C\C=C\[C@H](C)[C@H](O)[C@@H](C)[C@@H](O)[C@@H](C)[C@H](OC(C)=O)[C@@H]1C` [Rifampin, reference compound] gave an AUC(0-inf) in the series “in vivo” (10.4 mg/kg) of 102 µM·h. In “in vitro [3]”, the CC50 at 72 h is 207 µM. In addition, the “ED99 (dose that reduces 2 logs bacterial burden in the lungs of mice; 95% confidence interval in parenthesis)” value in the series with H37Rv was 9.8 (9.0–11) mg/kg.
For `CC(C)=CCC/C(C)=C/CNCCNC1C2CC3CC(C2)CC1C3` (stereo not drawn) [SQ109], the “activity against M. tuberculosis H37Rv bacilli in anaerobic models” value in [10] is “neither AU1235 nor SQ109 gave detectable activity”.
As for AU1235, the “activity against M. tuberculosis H37Rv bacilli in anaerobic models” value in series [10] (ref [17]-[19]) is recorded as “neither AU1235 nor SQ109 gave detectable activity”.
